Molecules are shown by their SMILES.

The nature of this data set: in vitro. As to conditions: human, hela cells, % viability.
As usually defined, the viability is a read-out of living cells in per cent, often relative to untreated cells. With `Nc1nc2c(cc1C(=O)NCc1ccccc1)CN(C(=O)CCCc1ccc(F)cc1)CC2` [CBK285887], the viability at 28.5 h, 10 µM came to 95.3%.

Consider `CC(=O)NCc1ccc(-c2ccc(C(=O)NCc3ccc4[nH]c(C)c(C)c4c3)c(C)n2)cc1` [CBK285888], for which the viability at 28.5 h, 10 µM was 72.1%. Regarding `CC(C)NC(=O)c1cc(C2CN(C(=O)CCc3ccccc3F)CCO2)nc2ccccc12` (stereo not drawn) [CBK285893], the viability at 28.5 h, 10 µM worked out at 109%. Take `COc1cccc(C(=O)N2CCOC(c3cc(C(=O)NCC(C)C)c4ccccc4n3)C2)c1` (stereo not drawn) [CBK285894]: the viability at 28.5 h, 10 µM came out at 97.4%. For `CCOc1cccc(OCC(=O)N2CCC(c3cc(C(=O)NC)c4ccccc4n3)C2)c1` (stereo not drawn) [CBK285896], the viability at 28.5 h, 10 µM amounted to 81.5%. `CCOc1ccc(CC(=O)NC[C@H]2CC[C@H](c3cc(C(N)=O)c4ccccc4n3)CC2)cc1` [CBK285899]: the viability at 28.5 h, 10 µM came out at 92.2%.

Turning to `CNC(=O)C1(Cc2ccccc2-c2cccs2)CCN(C(=O)CCc2ccccc2)CC1` [CBK285900], the viability at 28.5 h, 10 µM is 108%.

As to `CNC(=O)C1(Cc2ccccc2-c2ccccc2C)CCN(C(=O)Cc2ccccc2)CC1` [CBK285901], the viability at 28.5 h, 10 µM amounted to 106%.

As for `Cc1nc2ccc(NC(=O)CC3CCN(S(=O)(=O)c4cccc(F)c4)CC3)cc2[nH]1` [CBK285903], the viability at 28.5 h, 10 µM came to 88.8%. For `O=C(Nc1nc2c(s1)CCCCC2)C1CN(C(=O)Cc2ccc(F)cc2)C1` [CBK285904], the viability at 28.5 h, 10 µM was determined as 87.2%. In the case of `CNC(=O)C1(Cc2ccccc2-c2cccs2)CCN(C(=O)c2cccc(OC)c2)CC1` [CBK285907], the viability at 28.5 h, 10 µM was 85.7%. In the case of `COc1cccc(CC(=O)N2CCC(Cc3ccccc3-c3cccs3)(C(N)=O)CC2)c1` [CBK285908], the viability at 28.5 h, 10 µM amounted to 112%. As for `CCOc1ccccc1C(=O)N1CCC(Cc2ccccc2-c2ccccc2)(C(N)=O)CC1` [CBK285910], the viability at 28.5 h, 10 µM is 89.6%. In the case of `CNC(=O)C1(Cc2cccc(-c3cccs3)c2)CCN(C(=O)CCc2ccccc2)CC1` [CBK285913], the viability at 28.5 h, 10 µM is 90.4%. With `CCOc1ccccc1C(=O)N1CCC(Cc2cccc(-c3cccs3)c2)(C(N)=O)CC1` [CBK285914], the viability at 28.5 h, 10 µM is 84.9%.

Take `Cc1cccc(C)c1OCC(=O)N1CCC(c2cc(C(=O)NC(C)C)c3ccccc3n2)C1` (stereo not drawn) [CBK285916]: the viability at 28.5 h, 10 µM was determined as 112%. With `CCOc1ccccc1C(=O)N1CCC(c2cc(C(=O)NC(C)C)c3ccccc3n2)C1` (stereo not drawn) [CBK285918], the viability at 28.5 h, 10 µM was determined as 106%. As for `COc1ccc(CCC(=O)NC[C@H]2CC[C@H](c3cc(C(N)=O)c4ccccc4n3)CC2)cc1` [CBK285920], the viability at 28.5 h, 10 µM amounted to 91.7%. As to `CNC(=O)C1(Cc2ccccc2-c2ccccc2)CCN(C(=O)c2cccc(OC)c2)CC1` [CBK285922], the viability at 28.5 h, 10 µM is 85.3%. Turning to `CNC(=O)c1sc2ccccc2c1C1CCN(Cc2ccc(OC)c(OC(C)C)c2)C1` (stereo not drawn) [CBK285928], the viability at 28.5 h, 10 µM turned out to be 95.5%. Turning to `CNC(=O)c1sc2ccccc2c1C1CCN(Cc2nc3ccccc3n2C(C)C)C1` (stereo not drawn) [CBK285929], the viability at 28.5 h, 10 µM is 98.4%.

For the compound `CC(C)NC(=O)c1sc2ccccc2c1C1CN(Cc2ccc3ncccc3c2)CCO1` (stereo not drawn) [CBK285930], the viability at 28.5 h, 10 µM was 81.5%. Consider `O=C(NCCc1ccc(Cl)cc1)C1CCN(C(=O)CCc2ccccc2F)C1` (stereo not drawn) [CBK285931], for which the viability at 28.5 h, 10 µM was found to be 84.1%. Under `Cc1cc(Cc2ccccc2F)cc(C2CCN(C(=O)c3nc4ccc(F)cc4[nH]3)CC2)n1` [CBK285932] stands 120%. As to `Cc1cc(N2CCCC(N(C)S(=O)(=O)c3cccc(F)c3)CC2)nc(C)n1` (stereo not drawn) [CBK285935], the viability at 28.5 h, 10 µM came to 85.5%.

As for `CN(Cc1ccccc1)C(=O)c1c[nH]nc1C1CCCCN1Cc1ccccc1Cl` (stereo not drawn) [CBK285936], the viability at 28.5 h, 10 µM worked out at 88.1%. For the compound `CN(C)c1ccc(CCNS(=O)(=O)c2ccc3[nH]c(=O)[nH]c(=O)c3c2)cc1` [CBK285938], the viability at 28.5 h, 10 µM was 84.8%. Regarding `Cc1nc(C2(O)CCCN(C3CCCC3)CC2)sc1COc1ccc(Cl)cc1` (stereo not drawn) [CBK285940], the viability at 28.5 h, 10 µM came out at 122%. In the case of `CN(Cc1ccc2ncccc2c1)C(=O)C1CN(S(=O)(=O)c2ccc(F)cc2)C1` [CBK285943], the viability at 28.5 h, 10 µM came out at 92.5%. To `CC(C)c1csc(NC(=O)C2CN(S(=O)(=O)c3ccc(F)cc3)C2)n1` [CBK285944] belongs 120%. With `COc1ccc(-c2cncc(C3CN(Cc4cccc5ncccc45)CCO3)n2)cc1` (stereo not drawn) [CBK285947], the viability at 28.5 h, 10 µM was 96.7%. As to `CC(NC(=O)CC1CCN(Cc2cccc(C(F)(F)F)c2)CC1)c1nc2ccccc2[nH]1` (stereo not drawn) [CBK285952], the viability at 28.5 h, 10 µM amounted to 104%. Consider `COc1ccccc1CC(C)NC(=O)CC1CCN(c2nc(C)cc(C)n2)CC1` (stereo not drawn) [CBK285956], for which the viability at 28.5 h, 10 µM stood at 111%. Regarding `Cc1cc(C)nc(N2CCC(CC(=O)N3CCN(C4CCCC4)CC3)CC2)n1` [CBK285957], the viability at 28.5 h, 10 µM was 97.6%. Regarding `O=C(CC1CCN(Cc2ccccn2)CC1)NCC1(c2ccccc2)CCCC1` [CBK285959], the viability at 28.5 h, 10 µM stood at 87.4%.

Take `O=C(CC1CCN(Cc2ccccn2)CC1)Nc1ccc(OC2CCCC2)cc1` [CBK285960]: the viability at 28.5 h, 10 µM is 104%. Consider `CC(C)c1csc(NC(=O)CC2CCN(C(=O)CC3CCCCC3)CC2)n1` [CBK285963], for which the viability at 28.5 h, 10 µM worked out at 82.3%. `Cc1cccc(CCNC(=O)CC2CCN(C(=O)CC3CCCCC3)CC2)c1` [CBK285964]: the viability at 28.5 h, 10 µM was 114%. Consider `O=C(CC1CCN(C(=O)Cc2ccccc2)CC1)NC1(c2ccccc2)CCCC1` [CBK285965], for which the viability at 28.5 h, 10 µM stood at 101%. `Cc1cnc(Nc2cccc(C3CCCN3C(=O)CCOc3ccccc3C)n2)s1` (stereo not drawn) [CBK285972]: the viability at 28.5 h, 10 µM was found to be 112%. Regarding `COc1cccc(-c2cncc(C3CN(Cc4cccc5ncccc45)CCO3)n2)c1` (stereo not drawn) [CBK285973], the viability at 28.5 h, 10 µM is 102%. Turning to `CCn1c(CN2CCCC2c2nc(N(C)C)ncc2-c2ccc(F)cc2)nc2ccccc21` (stereo not drawn) [CBK285974], the viability at 28.5 h, 10 µM was determined as 94.9%. As for `O=C(Cn1cccc(C(=O)NC2CCCC2)c1=O)NCC1(c2ccccc2)CCCC1` [CBK285975], the viability at 28.5 h, 10 µM was 96.2%. As to `Cc1[nH]c2cccc(C(=O)N3CCCCC3CCNC(=O)c3ccccc3)c2c1C` (stereo not drawn) [CBK285976], the viability at 28.5 h, 10 µM amounted to 82%. Under `COc1ccccc1CC(=O)N1[C@H](Cc2ccccc2)C[C@@H]2NCCCCC[C@H]21` [CBK285978] stands 96.3%; under `O=C(NC[C@H]1CC[C@H](c2cc(C(=O)N3CCOCC3)c3ccccc3n2)CC1)C1CCCC1` [CBK285979], 89.9%. Under `Cc1ccc(C2CCCN2C(=O)c2ccc(=O)n(CC(=O)NC3CCCCC3)c2)cc1C` (stereo not drawn) [CBK285982] stands 97.4%; under `CC(C)(CNC(=O)c1ccc(=O)n(CC(=O)NC2CCCCC2)c1)c1ccccc1F` [CBK285983], 90.7%. With `CC(C)(CNC(=O)c1ccc(=O)n(CC(=O)NC2CCCCC2)c1)c1ccc(F)cc1` [CBK285984], the viability at 28.5 h, 10 µM is 83.9%. Turning to `Cc1cc(C)nc(Nc2ccc(C3CCCN(S(=O)(=O)c4ccc(F)cc4)C3)nc2)n1` (stereo not drawn) [CBK285987], the viability at 28.5 h, 10 µM came out at 86%. On to `Cc1cc(C)nc(Nc2ccc(C3CCCN(C(=O)c4c(C)oc5c4CCCC5)C3)nc2)n1` (stereo not drawn) [CBK285988], for which the viability at 28.5 h, 10 µM is 109%. For the compound `Cn1c(CCC(=O)Nc2ccc3c(c2)CN(Cc2ccccc2)C3)nc2ccccc21` [CBK285990], the viability at 28.5 h, 10 µM stood at 81.2%. As to `COc1ccc(CCC(=O)N2CCCC2c2ccc(Cc3ccccc3F)cn2)cc1` (stereo not drawn) [CBK285992], the viability at 28.5 h, 10 µM is 94.2%. To `Cc1cc(C)nc(N2CCC(CC(=O)NC(C)CCN3CCCCCC3)CC2)n1` (stereo not drawn) [CBK285993] belongs 96.4%; to `Cc1cc(C)nc(N2CCC(CC(=O)NCCCc3ccc(F)cc3)CC2)n1` [CBK285995], 83.1%; to `CCn1ccc(NC(=O)CC2CCN(Cc3cccc(C(F)(F)F)c3)CC2)n1` [CBK285997], 101%. As to `O=C(Cn1cc(C(=O)NCc2ccccc2)ccc1=O)Nc1cc(F)ccc1N1CCCC1` [CBK285998], the viability at 28.5 h, 10 µM is 97.8%. For `COc1cccc(CC(=O)N2CCCC2c2cc(Nc3nc(C)cc(C)n3)cc(C)n2)c1` (stereo not drawn) [CBK285999], the viability at 28.5 h, 10 µM is 90.5%. Take `Cc1nc2ccccn2c1CC(=O)N1CCCC(c2ccc(Cc3cccc(F)c3)cn2)C1` (stereo not drawn) [CBK286002]: the viability at 28.5 h, 10 µM turned out to be 91.3%. As for `CC1CCc2nc(NC(=O)C3CN(S(=O)(=O)c4ccc(F)cc4)C3)sc2C1` (stereo not drawn) [CBK286004], the viability at 28.5 h, 10 µM was 110%. With `O=C(Cn1cccc(C(=O)Nc2cc(F)ccc2N2CCCC2)c1=O)NC1CCCCC1` [CBK286008], the viability at 28.5 h, 10 µM is 88.9%.

In the case of `Cc1ccc(C)c(C2CCCN2C(=O)c2cccn(CC(=O)NC3CCCCC3)c2=O)c1` (stereo not drawn) [CBK286010], the viability at 28.5 h, 10 µM turned out to be 93%. Regarding `Cc1[nH]c2c(C)ccc(C)c2c1CC(=O)N1[C@@H](c2ccccc2F)C[C@@H]2NC(=O)CCC[C@H]21` [CBK286011], the viability at 28.5 h, 10 µM stood at 76.3%. With `CNC(=O)c1ccc(-c2ccc(CNC(=O)C3(c4cccc(F)c4)CCCC3)cc2)nc1C` [CBK286013], the viability at 28.5 h, 10 µM worked out at 105%. Take `Cc1cc(CCCC(=O)NCc2ccc(-c3ccc(C(N)=O)c(C)n3)cc2)ccc1F` [CBK286016]: the viability at 28.5 h, 10 µM came out at 90.3%. Turning to `CC(C)c1ccc(C(C)NC(=O)c2cccn(CC(=O)NC3CCCC3)c2=O)cc1` (stereo not drawn) [CBK286018], the viability at 28.5 h, 10 µM was determined as 91.3%.

For `Cc1nc(Nc2cccc(C3CCCN3C(=O)COc3ccc(F)cc3)n2)sc1C` (stereo not drawn) [CBK286019], the viability at 28.5 h, 10 µM is 87%. Consider `O=C(NCc1ccc(F)cc1)c1ccc(=O)n(CC(=O)N2CCC3(CCCCC3)C2)c1` [CBK286021], for which the viability at 28.5 h, 10 µM is 109%.

Consider `Cc1ccc(C)c(C2CCCN2C(=O)C2CN(C(=O)C3CCN(C)CC3)C2)c1` (stereo not drawn) [CBK286022], for which the viability at 28.5 h, 10 µM was determined as 97.5%.

Consider `Cn1c(=O)oc2ccc(C(=O)Nc3cccc(-c4ccc(F)cc4)c3)cc21` [CBK286023], for which the viability at 28.5 h, 10 µM turned out to be 84.9%.

Turning to `Cc1nc(C2(O)CCCN(Cc3cccc(F)c3)CC2)sc1CCOc1ccccc1` (stereo not drawn) [CBK286024], the viability at 28.5 h, 10 µM is 89.6%. For the compound `Cc1cc(C)c2nc(NC(=O)c3ccc(=O)n(CC(=O)N(C)c4ccccc4)c3)sc2c1` [CBK286025], the viability at 28.5 h, 10 µM came to 91.5%.

The values are drawn from paper PMC12040169 (PLOS Biology, 2025).
